# Results published in patent publication EP0319906A2, “Novel quinoline derivatives, processes for preparation thereof and antibacterial agent containing them” (Dainippon Pharmaceutical Co., Ltd., priority 1987, dated 1989).
# How the values were obtained:
# in vivo = settings: mouse, po; for LD50 at 7 days: male, ddY
# Procedure: A suspension containing each of compounds of this invention in various concentrations was orally given to male mice (ddY) at a dose of 0.1 ml per 10 g of body weight. The number of dead mice was counted after 7 days, and the value of median lethal dose (LD₅₀, mg/kg) was calculated in accordance with the Behrens-Kaerber method.
# C. Trachomatics G/ur 931 = assay: Antichlamydia activity, MIC in McCoy cells (inclusion bodies); format: cell-based; settings: C. Trachomatics G/ur 931; McCoy cells, 36 °C for 40-48 hours; calculated for free base; read-out: minimum inhibitory concentrations (MIC)
# Procedure: (§1) The figures in the table show minimum inhibitory concentrations (MIC), (μg/ml), calculated for free base. Minimum inhibitory concentrations (MIC) were determined as follows. […] The cells were trypsinized and suspended in the same culture medium at a cell concentration of 1-2 x 10^5 cells/ml. One ml of the cell suspension was pipetted into flat-bottomed plastic tubes (14 mm in diameter) containing a cover slip (12 mm in diameter). The tubes were incubated in 5 % CO2-air at 36 °C for 20 hours. One-half ml of a chlamydial suspension (ca. 1-4 x 103 inclusion body forming units) was added into each tube, which was then centrifuged at 1500 x g for 60 minutes. The tubes were incubated for 1 hour at 36 °C. […] After further incubation at 36 °C for 40-48 hours, the cells on the cover glasses were stained with the Giemsa's solution. […] The MIC was defined as the lowest drug concentration where there were no inclusion bodies in all the cells on the cover slip.
# [1] = tested on: C. Trachomatics G/ur 1317; assay: as above; format: cell-based; settings: C. Trachomatics G/ur 1317; McCoy cells, 36 °C for 40-48 hours; calculated for free base; read-out: minimum inhibitory concentrations (MIC)
# Procedure: as §1
# [2] = tested on: C. Trachomatics G/ur 1448; assay: as above; format: cell-based; settings: C. Trachomatics G/ur 1448; McCoy cells, 36 °C for 40-48 hours; calculated for free base; read-out: minimum inhibitory concentrations (MIC)
# Procedure: as §1
# [3] = tested on: C. Trachomatics G/ur 1242; assay: as above; format: cell-based; settings: C. Trachomatics G/ur 1242; McCoy cells, 36 °C for 40-48 hours; calculated for free base; read-out: minimum inhibitory concentrations (MIC)
# Procedure: as §1
# S. aureus No. 80 = assay: In vitro antibacterial activity, twofold agar-dilution MIC; format: cell-based; settings: Staphylococcus aureus; S. aureus No. 80; Mueller-Hinton agar, 20-hour incubation at 37 °C; calculated for free base; read-out: minimum inhibitory concentrations (MIC)
# Procedure: (§2) The figures in the table show minimum inhibitory concentrations (MIC) (µg/ml), calculated for free base. […] One loopful of an overnight culture of test organisms in Mueller-Hinton broth was inoculated onto 10 ml drug- containing agar layers in petri dishes. Bacterial inocula contained approximately 10⁶ colonyl-forming units. […] The MIC was defined as the lowest drug concentration which prevented visible bacterial growth.
# S. pyogenes A65 = assay: as above; format: cell-based; settings: Streptococcus pyogenes; S. pyogenes A65; Mueller-Hinton agar, 20-hour incubation at 37 °C; calculated for free base; read-out: minimum inhibitory concentrations (MIC)
# Procedure: as §2
# S. aureus Terajima = assay: as above; format: cell-based; settings: Staphylococcus aureus; S. aureus Terajima; Mueller-Hinton agar, 20-hour incubation at 37 °C; calculated for free base; read-out: minimum inhibitory concentrations (MIC)
# Procedure: as §2
# P. aeruginosa 12 = assay: as above; format: cell-based; settings: Pseudomonas aeruginosa; P. aeruginosa 12; Mueller-Hinton agar, 20-hour incubation at 37 °C; calculated for free base; read-out: minimum inhibitory concentrations (MIC)
# Procedure: as §2
# S. marcescens S-9 = assay: as above; format: cell-based; settings: Serratia marcescens, S9; S. marcescens S-9; Mueller-Hinton agar, 20-hour incubation at 37 °C; calculated for free base; read-out: minimum inhibitory concentrations (MIC)
# Procedure: as §2
# S. aureus 209 JC-1 = assay: as above; format: cell-based; settings: Staphylococcus aureus, 209JC1; S. aureus 209 JC-1; Mueller-Hinton agar, 20-hour incubation at 37 °C; calculated for free base; read-out: minimum inhibitory concentrations (MIC)
# Procedure: as §2
# E. coli NIHJ JC-2 = assay: as above; format: cell-based; settings: Escherichia coli, NIHJJC2; E. coli NIHJ JC-2; Mueller-Hinton agar, 20-hour incubation at 37 °C; calculated for free base; read-out: minimum inhibitory concentrations (MIC)
# Procedure: as §2
# S. epidermidis No. 8 = assay: as above; format: cell-based; settings: Staphylococcus epidermidis; S. epidermidis No. 8; Mueller-Hinton agar, 20-hour incubation at 37 °C; calculated for free base; read-out: minimum inhibitory concentrations (MIC)
# Procedure: as §2
# E. coli P-5101 = assay: as above; format: cell-based; settings: Escherichia coli, P5101; E. coli P-5101; Mueller-Hinton agar, 20-hour incubation at 37 °C; calculated for free base; read-out: minimum inhibitory concentrations (MIC)
# Procedure: as §2
SMILES,"LD50 at 168 h (in vivo; orally given to male mice (ddY), dead mice counted after 7 days, Behrens-Kaerber method, read-out: LD₅₀) [mg/kg]",MIC (C. Trachomatics G/ur 931) [µg/mL],MIC [1] [µg/mL],MIC [2] [µg/mL],MIC [3] [µg/mL],MIC (S. aureus No. 80) [µg/mL],MIC (S. pyogenes A65) [µg/mL],MIC (S. aureus Terajima) [µg/mL],MIC (P. aeruginosa 12) [µg/mL],MIC (S. marcescens S-9) [µg/mL],MIC (S. aureus 209 JC-1) [µg/mL],MIC (E. coli NIHJ JC-2) [µg/mL],MIC (S. epidermidis No. 8) [µg/mL],MIC (E. coli P-5101) [µg/mL],LD50 at 7 days (in vivo) [mg/kg]
"Cc1c(F)c(N2CCNCC2)c(F)c2c1c(=O)c(C(=O)O)cn2C1CC1 [Compound 2, 1-cyclopropyl-6,8--difluoro-5-methyl-7-(1-piperazinyl)-1,4-dihydro-4-oxoquinoline-3-carboxylic acid]",> 2000,0.05,0.1,0.1,0.1,0.0125,0.39,0.025,0.2,0.1,0.025,0.0063,0.025,0.0063,–
"Cc1c(F)c(N2CCC(N)C2)c(F)c2c1c(=O)c(C(=O)O)cn2C1CC1 (centres unmarked) [Compound 3, 7-(3-amino-1-pyrrolidinyl)-1-cyclopropyl-6,8-difluoro-5-methyl-1,4-dihydro-4-oxoquinoline-3-carboxylic acid]",–,0.013,0.013,0.013,0.013,0.0125,0.2,0.0125,0.2,0.05,0.0125,0.0125,0.0125,0.0125,> 2000
"Cc1c(F)c(N2C[C@@H](C)N[C@@H](C)C2)cc2c1c(=O)c(C(=O)O)cn2C1CC1 [Compound 4, 1-cyclopropyl-6-fluoro-5-methyl-7-(cis-3,5-dimethyl-1-piperazinyl)-1,4-dihydro-4-oxoquinoline-3-carboxylic acid]",–,–,–,–,–,0.05,0.1,0.025,0.2,0.39,0.025,0.0125,0.05,0.025,> 2000
